Legend:
[1] = molecular target: T1, PERK (Homo sapiens, UniProt Q9NZJ5); assay: Cell-based PERK inhibition assay (TR-FRET, phosphorylation of GFP-eIF2 alpha in HEK293 cells, tunicamycin); conditions: HEK293 (LanthaScreen eIF2α GripTite) cells, compounds 60 min, tunicamycin 2 microg/ml 120 min; for IC50: read-out: P-eIF2alpha_Lantha_cell pIC50 (converted)
T1 sequence (Q9NZJ5 30-1116): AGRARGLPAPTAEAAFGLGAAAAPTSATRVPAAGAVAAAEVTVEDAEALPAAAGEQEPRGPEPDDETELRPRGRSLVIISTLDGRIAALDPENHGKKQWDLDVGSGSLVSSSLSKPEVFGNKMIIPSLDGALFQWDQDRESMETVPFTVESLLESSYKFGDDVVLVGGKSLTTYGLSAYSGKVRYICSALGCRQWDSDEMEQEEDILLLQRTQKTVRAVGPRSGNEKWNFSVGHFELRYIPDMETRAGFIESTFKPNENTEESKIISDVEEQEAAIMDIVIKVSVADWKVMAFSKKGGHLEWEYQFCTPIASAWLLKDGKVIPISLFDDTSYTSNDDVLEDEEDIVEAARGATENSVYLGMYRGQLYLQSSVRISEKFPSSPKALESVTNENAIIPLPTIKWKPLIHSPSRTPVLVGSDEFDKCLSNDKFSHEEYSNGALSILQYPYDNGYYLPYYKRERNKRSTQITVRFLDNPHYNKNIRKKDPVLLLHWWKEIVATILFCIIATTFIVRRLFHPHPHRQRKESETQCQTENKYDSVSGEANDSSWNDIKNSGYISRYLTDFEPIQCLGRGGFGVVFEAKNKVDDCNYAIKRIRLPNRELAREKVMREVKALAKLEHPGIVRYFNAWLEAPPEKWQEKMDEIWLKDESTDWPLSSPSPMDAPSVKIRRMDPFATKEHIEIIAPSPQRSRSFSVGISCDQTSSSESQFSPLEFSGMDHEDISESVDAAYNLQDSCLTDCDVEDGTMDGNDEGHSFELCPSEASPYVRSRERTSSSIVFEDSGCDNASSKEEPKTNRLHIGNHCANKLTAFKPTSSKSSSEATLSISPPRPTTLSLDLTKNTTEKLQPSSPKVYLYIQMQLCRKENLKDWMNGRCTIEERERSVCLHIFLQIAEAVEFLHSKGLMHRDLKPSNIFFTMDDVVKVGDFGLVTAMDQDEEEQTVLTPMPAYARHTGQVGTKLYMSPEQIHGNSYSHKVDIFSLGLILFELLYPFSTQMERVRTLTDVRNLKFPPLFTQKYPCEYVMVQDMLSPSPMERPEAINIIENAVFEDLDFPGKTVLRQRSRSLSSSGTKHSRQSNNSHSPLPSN
Method: A cell-based TR-FRET assay to measure inhibition of phosphorylation of GFP-eIF2 alpha expressed in HEK293 cells by compounds was set up as follows:
LanthaScreen® eIF2α GripTite cells (Invitrogen M4387) were plated and incubated for 16-20 h at 37° C. and 5% CO2, incubated with test compounds for 60 min, and then stimulated with tunicamycin (2 microg/ml) for 120 min. Culture medium was aspirated from the wells and, the cells were lysed in LanthaScreen® Cellular Assay Lysis Buffer (Invitrogen; PV5598), supplemented with protease inhibitor cocktail (Sigma P8340, 1/1000 dilution) and phosphatase inhibitor cocktail (Sigma P0044, 1/1000 dilution), including 2 nM terbium-labeled eIF2a pSer52 antibody (Invitrogen; PV4816).

[2] = molecular target: T1, PERK; assay: In-vitro PERK enzyme inhibition assay (LanthaScreen, KIN_PERK); type: biochemical; set-up: GST (N); purchased Invitrogen PV5106; conditions: recombinant GST-PERK, GFP-eIF2 alpha substrate, 5 μM ATP, 60 minutes; for IC50: read-out: KIN_PERK pIC50 (converted)
Method: Pharmacology i) In-Vitro PERK Enzyme Inhibition Assay (KIN_PERK pIC50)
The compounds of the invention were tested for inhibitory activity against PERK in an enzyme inhibition assay.
A biochemical PERK kinase assay using LanthaScreen® technology from Invitrogen using recombinant GST-PERK (Invitrogen PV5106), GFP-eIF2 alpha (full length) as substrate (Invitrogen PV4809) and the Terbium-labeled antibody (Tb-anti-peIF2alpha (pSer52); Invitrogen PV4816) as detection reagent, was performed essentially as described by the manufacturer, using following specific parameters: […]

| SMILES | IC50 [1] [nM] | melting point [°C] | KIN_PERK pIC50 [2] | IC50 [2] [nM] | P-eIF2alpha_Lantha_cell pIC50 [1] |
| --- | --- | --- | --- | --- | --- |
| COc1cc2ncnc(Nc3ccc4c(c3)CCN4C(=O)Cn3ccc4ccccc43)c2cc1OC [Compound 15] | ~302 | 176 | 8.2 |  |  |
| COc1cc2ncnc(Nc3ccc4c(c3)CCN4C(=O)Cc3csc4ccccc34)c2cc1OC [Compound 16] | 501 | 161 |  | 5.01 |  |
| COc1cc2ncnc(Nc3ccc4c(c3)CCN4C(=O)Cc3nn(C)c4ccccc34)c2cc1OC [Compound 17] | 794 | 158 |  | 20 |  |
| COc1cc2ncnc(Nc3ccc4c(c3)CCN4C(=O)Cc3cccs3)c2cc1OC [Compound 20] | 1260 | 219 |  | 31.6 |  |
| COc1cc2ncnc(Nc3ccc4c(c3)CCN4C(=O)Cc3ccn(C)n3)c2cc1OC [Compound 28] |  | 199 | 6.6 |  | 5.1 |
| COc1cc2ncnc(Nc3ccc4c(c3)CCN4C(=O)Cc3coc4ccccc34)c2cc1OC [Compound 30] | > 30200 | 165 | 8.0 |  |  |
| COc1cc2ncnc(Nc3ccc4c(c3F)CCN4C(=O)Cc3c(C)[nH]c4ccccc34)c2cc1OC [Compound 39, 1-[5-[(6,7-dimethoxyquinazolin-4-yl)amino]-4-fluoro-indolin-1-yl]-2-(2-methyl-1H-indol-3-yl)ethanone] |  | 174 | 9.0 |  | 7.9 |
| COc1cc2ncnc(Nc3ccc4c(c3)CCN4C(=O)Cc3c[nH]c4ccccc34)c2cc1OC [Compound 40] | 631 | 180 |  | 12.6 |  |
| COc1cc2ncnc(Nc3ccc4c(c3)CCN4C(=O)Cc3cc(F)ccc3F)c2cc1OC [Compound 42] | 631 | > 260 |  | 6.31 |  |
| COc1cc2ncnc(Nc3ccc4c(c3)CCN4C(=O)Cn3ccnc3)c2cc1OC [Compound 53] | > 10000 | 174 |  | > 10000 |  |

Reference: patent US9688662B2, “N-(2,3-dihydro-1H-pyrrolo[2,3-b]pyridin-5-yl)-4-quinazolinamine and N-(2,3-dihydro-1H-indol-5-yl)-4-quinazolinamine derivatives as perk inhibitors” (Janssen Pharmaceutica NV, priority 2013, dated 2017)
